Source: US11040035B2, “3-oxo-2,6-diphenyl-2,3-dihydropyridazine-4-carboxamides” (BAYER PHARMA AKTIENGESELLSCHAFT, priority 2016, dated 2021)

What was measured:
AHR [1] = molecular target: T1, AHR (Homo sapiens, UniProt P35869); test: In vitro assay 2: agonism in human cell line (transactivation assay); conditions: Assay 2: AHR-luc Hum Agonism IC50 [M], no kynurenic acid, 20 hours, firefly luciferase
T1 sequence (P35869 11-848): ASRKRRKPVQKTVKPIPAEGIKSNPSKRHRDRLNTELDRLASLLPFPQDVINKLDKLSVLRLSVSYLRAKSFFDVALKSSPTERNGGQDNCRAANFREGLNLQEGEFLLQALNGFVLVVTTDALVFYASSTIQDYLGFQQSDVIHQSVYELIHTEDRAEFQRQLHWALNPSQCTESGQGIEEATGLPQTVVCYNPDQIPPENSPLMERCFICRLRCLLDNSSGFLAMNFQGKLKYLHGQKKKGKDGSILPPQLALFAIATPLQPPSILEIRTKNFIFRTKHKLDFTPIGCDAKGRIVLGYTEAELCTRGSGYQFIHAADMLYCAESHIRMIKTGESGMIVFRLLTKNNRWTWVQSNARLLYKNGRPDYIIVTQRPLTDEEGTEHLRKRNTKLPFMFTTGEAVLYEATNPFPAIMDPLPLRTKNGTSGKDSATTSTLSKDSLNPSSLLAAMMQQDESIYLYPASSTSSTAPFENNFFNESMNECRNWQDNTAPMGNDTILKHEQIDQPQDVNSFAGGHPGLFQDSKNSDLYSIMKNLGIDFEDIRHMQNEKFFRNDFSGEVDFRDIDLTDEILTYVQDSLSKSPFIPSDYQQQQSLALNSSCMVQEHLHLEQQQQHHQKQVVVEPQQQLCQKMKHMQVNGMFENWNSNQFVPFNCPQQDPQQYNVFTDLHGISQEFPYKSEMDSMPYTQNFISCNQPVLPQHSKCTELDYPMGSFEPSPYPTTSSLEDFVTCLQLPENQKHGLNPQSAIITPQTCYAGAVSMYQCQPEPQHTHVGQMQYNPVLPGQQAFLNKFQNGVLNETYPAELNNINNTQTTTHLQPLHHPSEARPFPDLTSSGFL

AHR [2] = molecular target: T1, AHR; test: In vitro assay 1: antagonism in human cell line (transactivation assay, kynurenic acid prestimulated); conditions: Assay 1: AHR-luc Hum Antagonism IC50 [M], 150 μM kynurenic acid, 20 hours, firefly luciferase

SMILES | IC50 (AHR [1]) [M] | IC50 (AHR [2]) [M]
CC(O)C(C)NC(=O)c1cc(-c2ccc(Cl)c(Cl)c2)nn(-c2cccc(F)c2)c1=O (centres unmarked) [Example 304, 6-(3,4-Dichlorophenyl)-2-(3-fluorophenyl)-N-(3-hydroxybutan-2-yl)-3-oxo-2,3-dihydropyridazine-4-carboxamide] | > 2e-05 | 2.75e-07
O=C(NC(CO)C1CCOC1)c1cc(-c2ccc(Cl)c(Cl)c2)nn(-c2cccc(F)c2)c1=O (centres unmarked) [Example 307, 6-(3,4-Dichlorophenyl)-2-(3-fluorophenyl)-N-[2-hydroxy-1-(tetrahydrofuran-3-yl)ethyl]-3-oxo-2,3-dihydropyridazine-4-carboxamide] | > 2e-05 | 2.22e-07
C[C@@H](CO)NC(=O)c1cc(-c2ccc(Cl)cc2)nn(-c2cc(Cl)cc(Cl)c2)c1=O [Example 309, 6-(4-Chlorophenyl)-2-(3,5-dichlorophenyl)-N-[(2S)-1-hydroxypropan-2-yl]-3-oxo-2,3-dihydropyridazine-4-carboxamide] | > 2e-05 | 9.87e-07
O=C(NC(CO)C1CCOC1)c1cc(-c2ccc(Cl)cc2)nn(-c2cc(Cl)cc(Cl)c2)c1=O (centres unmarked) [Example 310, 6-(4-Chlorophenyl)-2-(3,5-dichlorophenyl)-N-[2-hydroxy-1-(tetrahydrofuran-3-yl)ethyl]-3-oxo-2,3-dihydropyridazine-4-carboxamide] | > 2e-05 | 4.34e-07
O=C(NCC(O)C(F)(F)F)c1cc(-c2ccc(Cl)cc2)nn(-c2cc(Cl)cc(Cl)c2)c1=O (centres unmarked) [Example 311, 6-(4-Chlorophenyl)-2-(3,5-dichlorophenyl)-3-oxo-N-(3,3,3-trifluoro-2-hydroxypropyl)-2,3-dihydropyridazine-4-carboxamide] | > 2e-05 | 6.6e-07
O=C(NCCC1(O)CCCCC1)c1cc(-c2ccc(Cl)cc2)nn(-c2cccc(F)c2)c1=O [Example 320, 6-(4-chlorophenyl)-2-(3-fluorophenyl)-N-[2-(1-hydroxycyclohexyl)ethyl]-3-oxo-2,3-dihydropyridazine-4-carboxamide] | > 2e-05 | 3.62e-07
CC(C)(O)CCNC(=O)c1cc(-c2ccc(Cl)cc2)nn(-c2cccc(F)c2)c1=O [Example 321, 6-(4-chlorophenyl)-2-(3-fluorophenyl)-N-(3-hydroxy-3-methylbutyl)-3-oxo-2,3-dihydropyridazine-4-carboxamide] | > 2e-05 | 2.64e-07
O=C(NCC1(O)CCOCC1)c1cc(-c2ccc(Cl)cc2)nn(-c2cccc(F)c2)c1=O [Example 325, 6-(4-chlorophenyl)-2-(3-fluorophenyl)-N-[(4-hydroxytetrahydro-2H-pyran-4-yl)methyl]-3-oxo-2,3-dihydropyridazine-4-carboxamide] | > 2e-05 | 9.65e-08
O=C(NCC1(O)CCCC1)c1cc(-c2ccc(Cl)cc2)nn(-c2cccc(F)c2)c1=O [Example 326, 6-(4-chlorophenyl)-2-(3-fluorophenyl)-N-[(1-hydroxycyclopentyl)methyl]-3-oxo-2,3-dihydropyridazine-4-carboxamide] | > 2e-05 | 6.47e-08
CC(NC(=O)c1cc(-c2ccc(Cl)cc2)nn(-c2cccc(F)c2)c1=O)C(O)CO (centres unmarked) [Example 337, 6-(4-chlorophenyl)-N-(3,4-dihydroxybutan-2-yl)-2-(3-fluorophenyl)-3-oxo-2,3-dihydropyridazine-4-carboxamide] | > 2e-05 | 4.58e-08
N#Cc1cccc(-n2nc(-c3ccc(Cl)cc3)cc(C(=O)NCC(O)C(F)(F)F)c2=O)c1 (centres unmarked) [Example 362, 6-(4-chlorophenyl)-2-(3-cyanophenyl)-3-oxo-N-(3,3,3-trifluoro-2-hydroxypropyl)-2,3-dihydropyridazine-4-carboxamide] | > 2e-05 | 2.31e-07
Cc1cccc(-n2nc(-c3ccc(Cl)cc3)cc(C(=O)NCC(O)C(F)(F)F)c2=O)c1 (centres unmarked) [Example 366, 6-(4-chlorophenyl)-2-(3-methylphenyl)-3-oxo-N-(3,3,3-trifluoro-2-hydroxypropyl)-2,3-dihydropyridazine-4-carboxamide] | > 2e-05 | 9.7e-07
C[C@@H](CO)NC(=O)c1cc(-c2ccc(Cl)cc2)nn(-c2cccc(C(F)F)c2)c1=O [Example 370, 6-(4-chlorophenyl)-2-[3-(difluoromethyl)phenyl]-N-[(2S)-1-hydroxypropan-2-yl]-3-oxo-2,3-dihydropyridazine-4-carboxamide] | > 2e-05 | 9.24e-07
O=C(NC[C@H]1C[C@H](O)C1)c1cc(-c2ccc(Cl)cc2)nn(-c2cccc(F)c2)c1=O [Example 372, 6-(4-chlorophenyl)-2-(3-fluorophenyl)-N-[(trans-3-hydroxycyclobutyl)-methyl]-3-oxo-2,3-dihydropyridazine-4-carboxamide] | > 2e-05 | 2.21e-07
CN(C)c1ccc(-c2cc(C(=O)N[C@H](CO)C(F)(F)F)c(=O)n(-c3cccc(F)c3)n2)cc1Cl [Example 373, 6-[3-chloro-4-(dimethylamino)phenyl]-2-(3-fluorophenyl)-3-oxo-N-[(2R)-1,1,1-trifluoro-3-hydroxypropan-2-yl]-2,3-dihydropyridazine-4-carboxamide] | > 2e-05 | 1.69e-08
C[C@@H](CO)NC(=O)c1cc(-c2ccc(N(C)C)c(Cl)c2)nn(-c2cccc(F)c2)c1=O [Example 377, 6-[3-chloro-4-(dimethylamino)phenyl]-2-(3-fluorophenyl)-N-[(2S)-1-hydroxypropan-2-yl]-3-oxo-2,3-dihydropyridazine-4-carboxamide] | > 2e-05 | 1.36e-07
C[C@@H](NC(=O)c1cc(-c2ccc(OC(F)(F)F)cc2)nn(-c2cccc(F)c2)c1=O)C(C)(C)O [Example 381, 2-(3-fluorophenyl)-N-[(2R)-3-hydroxy-3-methylbutan-2-yl]-3-oxo-6-[4-(trifluoromethoxy)phenyl]-2,3-dihydropyridazine-4-carboxamide] | > 2e-05 | 4.7e-08
CC(C)(O)CNC(=O)c1cc(-c2ccc(OC(F)(F)F)cc2)nn(-c2cccc(F)c2)c1=O [Example 382, 2-(3-fluorophenyl)-N-(2-hydroxy-2-methylpropyl)-3-oxo-6-[4-(trifluoromethoxy)phenyl]-2,3-dihydropyridazine-4-carboxamide] | > 2e-05 | 9e-08
C[C@H](NC(=O)c1cc(-c2ccc(OC(F)F)cc2)nn(-c2cccc(F)c2)c1=O)C(C)(C)O [Example 386, 6-[4-(difluoromethoxy)phenyl]-2-(3-fluorophenyl)-N-[(2S)-3-hydroxy-3-methylbutan-2-yl]-3-oxo-2,3-dihydropyridazine-4-carboxamide] | > 2e-05 | 6.5e-08
CC(C)(C)OC(=O)N1C[C@H](O)[C@H](NC(=O)c2cc(-c3ccc(Cl)cc3)nn(-c3cccc(F)c3)c2=O)C1 [Example 387, tert-butyl (3R,4S)-3-({[6-(4-chlorophenyl)-2-(3-fluorophenyl)-3-oxo-2,3-dihydropyridazin-4-yl]carbonyl}amino)-4-hydroxypyrrolidine-1-carboxylate] | > 2e-05 | 3.5e-07
O=C(NCC(O)C(F)(F)F)c1cc(-c2ccc(Cl)cc2)nn(-c2cccc(C(F)F)c2)c1=O (centres unmarked) [Example 389, 6-(4-chlorophenyl)-2-[3-(difluoromethyl)phenyl]-3-oxo-N-(3,3,3-trifluoro-2-hydroxypropyl)-2,3-dihydropyridazine-4-carboxamide] | > 2e-05 | 8.8e-07
CC(C)OC[C@H](NC(=O)c1cc(-c2ccc(Cl)cc2)nn(-c2cccc(F)c2)c1=O)C(C)(C)O [Example 390, 6-(4-chlorophenyl)-2-(3-fluorophenyl)-N-[(2S)-3-hydroxy-1-isopropoxy-3-methylbutan-2-yl]-3-oxo-2,3-dihydropyridazine-4-carboxamide] | > 2e-05 | 9.4e-07
C[C@H](NC(=O)c1cc(-c2ccc(C(F)(F)F)cc2)nn(-c2cccc(F)c2)c1=O)C(C)(C)O [Example 391, 2-(3-fluorophenyl)-N-[(2S)-3-hydroxy-3-methylbutan-2-yl]-3-oxo-6-[4-(trifluoromethyl)phenyl]-2,3-dihydropyridazine-4-carboxamide] | > 2e-05 | 1e-08
O=C(N[C@H]1C[C@H](CO)C1)c1cc(-c2ccc(Cl)cc2)nn(-c2cccc(F)c2)c1=O [Example 396, 6-(4-chlorophenyl)-2-(3-fluorophenyl)-N-[trans-3-(hydroxymethyl)cyclobutyl]-3-oxo-2,3-dihydropyridazine-4-carboxamide] | > 2e-05 | 1.3e-07
O=C(NC[C@H](O)C(F)(F)F)c1cc(-c2ccc(CF)cc2)nn(-c2cccc(F)c2)c1=O [Example 397, 6-[4-(fluoromethyl)phenyl]-2-(3-fluorophenyl)-3-oxo-N-[(2S)-3,3,3-trifluoro-2-hydroxypropyl]-2,3-dihydropyridazine-4-carboxamide] | > 2e-05 | 1.8e-07
